Assay results as given in publication PMC12639897 (Journal of Translational Medicine, 2025).

Molecular target: T1, β-catenin (Homo sapiens, UniProt P35222)
T1 sequence (P35222 2-781): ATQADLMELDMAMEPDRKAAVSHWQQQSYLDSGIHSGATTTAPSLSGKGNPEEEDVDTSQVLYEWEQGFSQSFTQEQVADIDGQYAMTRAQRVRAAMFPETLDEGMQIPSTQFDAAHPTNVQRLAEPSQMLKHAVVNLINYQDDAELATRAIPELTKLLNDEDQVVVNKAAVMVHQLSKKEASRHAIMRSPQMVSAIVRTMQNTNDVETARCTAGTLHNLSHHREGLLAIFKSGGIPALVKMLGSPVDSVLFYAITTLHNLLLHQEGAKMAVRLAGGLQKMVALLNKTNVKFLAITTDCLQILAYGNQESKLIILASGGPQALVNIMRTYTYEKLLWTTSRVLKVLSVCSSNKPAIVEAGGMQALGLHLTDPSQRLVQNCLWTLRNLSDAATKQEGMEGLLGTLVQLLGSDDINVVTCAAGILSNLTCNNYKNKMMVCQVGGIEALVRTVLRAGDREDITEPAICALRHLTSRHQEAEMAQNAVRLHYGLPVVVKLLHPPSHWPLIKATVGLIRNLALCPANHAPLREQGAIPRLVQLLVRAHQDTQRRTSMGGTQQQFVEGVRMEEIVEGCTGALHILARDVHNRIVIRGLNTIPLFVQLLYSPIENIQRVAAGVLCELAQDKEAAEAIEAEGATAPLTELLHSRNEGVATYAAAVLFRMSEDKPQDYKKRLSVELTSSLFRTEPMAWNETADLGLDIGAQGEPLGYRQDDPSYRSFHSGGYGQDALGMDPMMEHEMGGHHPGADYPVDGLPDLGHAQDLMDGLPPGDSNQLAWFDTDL
Test: Biolayer interferometry
Type: binding

For `Cc1cccc2c3c(ccc12)C1=C(C(=O)C3=O)[C@@H](C)CO1` [DHTS, 15,16-Dihydrotanshinone I], the Kd was 14.6 µM.
